# Test results reported in patent US11883423B2, “Nucleobase analogue derivatives and their applications” (BOARD OF REGENTS, THE UNIVERSITY OF TEXAS SYSTEM, priority 2014, dated 2024).
# Tests used:
# [1] = tested on: NCI-56 human tumor cell lines; conditions: cited from earlier work
# [2] = tested on: Panc-02 tumors; assay: Antitumor activity against s.c. Panc-02 tumors in C57BL/6 mice; format: in vivo; conditions: i.p., ~0.1 mmole/kg, twice a week, up to 6 doses
# Procedure: Therefore, the in vivo anti-tumor activity of Gem-DHA was also evaluated and compared to that of DHA alone in male C57BL/6 mice (6-8 weeks, Charles River) with subcutaneously (s.c.)
# implanted Panc-02 tumors. Briefly, 1×10^6 cells were s.c. injected in the right flank of mice. Sixteen days later, mice were randomized into groups (n=12) and i.p. injected with Gem-DHA (˜55 mg/kg, […]) or DHA (˜33 mg/kg, ˜0.1 mmole/kg). Mice in the control group were i.p. injected with sterile 5% mannitol (w/v). Gem-DHA and DHA was dissolved in a Tween 80/ethanol/water solution with 5% (w/v) of mannitol. The doses were based on the average weight of mice in the same group on the first day of injection. The treatment was repeated twice a week for up to 6 doses. Tumor growth was monitored using a digital caliper, and tumor volume was calculated based on the longest diameter (L1) and the shortest diameter (L2) of each tumor using the equation of V=½×(L1×L2×L2).
# [3] = tested on: Panc-02 tumor cells; assay: Cytotoxicity after 4 h co-incubation, MTT test; format: cell-based, mouse; conditions: Panc-02 cells, at concentrations of more than 80 μM
# Procedure: The mechanisms underlying the cytotoxicity of the Gem-DHA may be different from that of gemcitabine. For example, in cell culture studies, Panc-02 cells were seeded into 96-well plates (1,500 cells per well) and incubated at 37° C., 5% CO2 for 24 h. They were then co-incubated with various concentrations of Gem-DHA, gemcitabine HCl alone, or DHA alone for 4 h, and cell viability was determined using an MTT test.
# [4] = tested on: BxPC-3 cells; assay: Cytotoxicity of Gem-ARA, MTT assay, BxPC-3 cells; format: cell-based, human; conditions: up to 72 h, mean ± SD (n>3)
# Procedure: (§1) To understand the effect of the omega-3 polyunsaturated fatty acid nature of the DHA (i.e., the docosahexaedecanoyl group) in the Gem-DHA on its cytotoxicity against tumor cells, gemcitabine was also conjugated to arachidonic acid, an omega-6 polyunsaturated fatty acid, to synthesize 4-(N)-arachidonyl gemcitabine (Gem-ARA) (FIG. 4). Human pancreatic cancer cells (MIA PaCa-2 or BxPC-3) were seeded (3,000/well) in 96-well plates. After overnight incubation, cells were treated with various concentrations of gemcitabine HCl or Gem-ARA at 37° C., 5% CO2 for up to 72 h. Gemcitabine HCl was dissolved in phosphate buffered saline (PBS, pH 7.4, 10 mM), and Gem-ARA was dissolved in DMSO. The maximum amount of DMSO added per well was 0.9 μL, which was found non-toxic. The number of viable cells after the incubation was determined using an MTT assay as described above. The 50% inhibition concentration (IC50) values were estimated using GraphPad prism 5 parameters curve fittings.
# [5] = tested on: MIA PaCa-2 cells; assay: Cytotoxicity of Gem-ARA, MTT assay, MIA PaCa-2 cells; format: cell-based, human; conditions: up to 72 h, mean ± SD (n>3)
# Procedure: as §1
# [6] = Aqueous solubility by the indirect method (IPM/water partitioning, Beall et al.); format: physicochemical; conditions: mean ± SD (n=3)
# Procedure: The aqueous solubility of Gem-DHA was determined following an indirect method according to Beall et al. with minimal modifications (Beall HD et al. International Journal of Pharmaceutics. 1993, 93, 37-47). Briefly, an excess amount of Gem-DHA was added to 100 μl of IPM in a crimp-sealed amber glass vials under nitrogen and was stirred vigorously at room temperature for 24 h, protected from light. After the stirring was stopped, the mixture was left to stand for an additional 24 h for equilibration. The content of the vial was centrifuged (14,000 rpm, 10 min) and the supernatant was transferred into a different tube. Aliquots of the saturated IPM solution were used to measure the Gem-DHA concentration before partitioning (A1) using HPLC (after proper dilution with methanol). Then, water was added to the IPM saturated solution in a volume ratio of 10:1. The two phases were mixed by vortexing for 5 min, left to stand for 15 min, then centrifuged (14,000 rpm, 15 min) to collect the IPM layer. Gem-DHA concentration in the IPM layer (A2) was again measured using HPLC after partitioning. The following equation was used to calculate the partition coefficient (KIPM/water) (Beall HD et al. International Journal of Pharmaceutics. 1993, 93, 37-47):
# [formula] where Vwater is the volume of the water phase and VIPM is the volume of IPM. The value of (Vwater/VIPM) was 10.
# The aqueous solubility (Sw) of Gem-DHA was determined using the following equation (Id.):
# [formula] where SIPM is the solubility of Gem-DHA in IPM.
# (§2) In order to validate the method of Beall et al. (Id.), the aqueous solubility of 4-(N)-stearoyl gemcitabine, another lipophilic gemcitabine conjugate (Sloat BR et al. Int J Pharm. 2011, 409(1-2), 278-288), which is stable in water, was measured directly (i.e., direct method) or using the indirect method reported by Beall et al. (Beall HD et al. International Journal of Pharmaceutics. 1993, 93, 37-47).
# [7] = Aqueous solubility measured directly (direct method); format: physicochemical; conditions: mean ± SD (n=3)
# Procedure: as §2
# [8] = tested on: pre-established tumors; conditions: solubilized in a Tween 80 solution; cited from earlier work
# [9] = tested on: MIA PaCa-2, Panc-1 cells, CCRF-CEM, B16-F10, and TC-1; conditions: various tumor cell lines in culture; cited from earlier work
# [10] = tested on: advanced pancreatic cancer; conditions: in combination with gemcitabine; cited from earlier work
smiles,measurement,setting,value
CC/C=C\C/C=C\C/C=C\C/C=C\C/C=C\C/C=C/CCC(=O)O[C@@H](C(=O)O[C@H]1C[C@@]2(O)[C@@H](OC(=O)c3ccccc3)C3[C@](C)(C(=O)[C@H](OC(C)=O)C(=C1C)C2(C)C)[C@@H](O)C[C@H]1OC[C@@]31OC(C)=O)[C@@H](NC(=O)c1ccccc1)c1ccccc1 (some centres unmarked) [DHA conjugated to paclitaxel],Effect of DHA conjugation on cytotoxicity,[1],lowers the cytotoxicity of the paclitaxel
"CC/C=C\C/C=C\C/C=C\C/C=C\C/C=C\C/C=C\CCC(=O)O [DHA, Cis-4,7,10,13,16,19-docosahexaenoic acid, reference compound]",Inhibition of Panc-02 tumor growth,[2],did not significantly inhibit the tumor growth
same,Cytotoxicity after 4 h of co-incubation,[3],did not show any significant cytotoxicity
"CCCCC/C=C\C/C=C\C/C=C\C/C=C\CCCC(=O)Nc1ccn([C@@H]2O[C@H](CO)[C@@H](O)C2(F)F)c(=O)n1 [Gem-ARA, 4-(N)-Arachidonoyl Gemcitabine]",IC50,[4],1.93 ± 3.8 nM
same,IC50,[5],64.3 ± 42.7 nM
"CCCCCCCCCCCCCCCCCC(=O)Nc1ccn([C@@H]2OC(CO)C(O)C2(F)F)c(=O)n1 (some centres unmarked) [Stearoyl gemcitabine, 4-(N)-stearoyl gemcitabine]",KIPM/water (partition coefficient),"[6]; IPM/water, room temperature",35.33 ± 2.7
same,"Water Solubility, Indirect method",[6]; estimated from solubility in IPM and KIPM/water,1.39 ± 0.1 µg/mL
same,"Water Solubility, Direct method",[7],1.38 ± 1.6 µg/mL
same,Inhibition of tumor growth compared with gemcitabine,[8],not more active than gemcitabine alone
same,Cytotoxicity compared with gemcitabine,[9],less cytotoxic than gemcitabine alone
C#Cc1cccc(Nc2ncnc3cc(OCCOC)c(OCCOC)cc23)c1 [erlotinib],Prolongation of median survival,[10],10 days
